Experiment [1] has as its system KLF15 promoter (pEZX-FR03hKLF15p human podocytes). In words: KLF15 reporter high-throughput screening assay in human podocytes (firefly/renilla luciferase). It is filed as cell-based. Conditions: for fold induction at 1 µM: Homo sapiens, read-out: Fold Change (KLF15 reporter activity). As for the experimental part:
Briefly, these podocytes proliferate under permissive conditions (gamma interferon at 33° C.), but differentiate under nonpermissive conditions (37° C.).
The amplified fragment contains MluI and PmeI RE sites and was subcloned into the MluI and PmeI cloning site of the pEZX-FR03 Firefly luciferase (FLuc) and Renilla luciferase (Rluc) reporter cloning vector (GeneCopoeia) to generate pEZX-FR03hKLF15p. Following verification of the sequence by restriction and μsequencing, the pEZX-FR03hKLF15p construct (which contains a puromycin resistance cassette) was transfected into human podocytes followed by selection in puromycin-containing media for 2 weeks. Surviving podocytes clones were pooled together for further analysis.
The library of compounds from the National Cancer Institute (Approved Oncology Drugs Set VI; Natural Products Set III; Diversity Set V; and Mechanistic Diversity Set II) were added to a final concentration of 1 μM in 0.5% DMSO in the low FBS cell culture media (0.2% FBS) using liquid handling system PipetMax (Gilson). After 24 hours incubation at 37° C., the Luc-Pair™ Duo-Luciferase HT Assay Kit (GeneCopoeia LF015) were used and firefly and renilla luciferase activity was determined using the SpectraMax M3 (Molecular Devices). Positive controls were all-trans retinoic acid (atRA) (1 μM) and dexamethasone (DEX) (1 μM). Negative controls were DMSO and cell-free media.
(§1) To identify small molecule inducers of KLF15 expression in human podocytes, human podocytes were generated with a dual reporter, firefly luciferase directed at the KLF15 promoter region and renilla luciferase (pEZX-FR03hKLF15p). […] The positive controls were inducers of KLF15 expression, dexamethasone (DEX) and all-trans retinoic acid (atRA), and […] and cell-free wells served as negative controls.

The test system is the same in experiment [2]. In words: Half maximal effective concentration (EC50) of KLF15 reporter activity. It is filed as cell-based. As for the experimental part:
The EC50 was determined using nonlinear regression and then choosing the equation of Sigmoidal function, 4PL method (X is log(concentration); or the equation of log(agonist) vs. response—variable slope).
as §1

The mark [3] stands for this setting: NCI library hits, 1 μM, 24 hours.
[4] abbreviates: KLF15 reporter activity, dose-response, read-out: EC50.
Setting [5] is: Homo sapiens, KLF15 reporter activity, dose-response, read-out: EC50.

38 molecules from patent US20250186411A1, “Methods of Treating Disorders Associated with Overactivation of IKKB” (The United States Government as represented by the …, priority 2023, published 2025) can be followed below.

Read-outs that look alike come from different tables or passages of the source.

Turning to “2-[2-[(2E)-2-[(5Z)-5-(anilinomethylene)-3-ethyl-4-oxo-thiazolidin-2-ylidene[hydrazino]thiazol-5-yl]-N-(o-tolyl)acetamide [C-26]”, in experiment [1] (setting [3]), the “Fold Change (KLF15 reporter activity)” value was 3.0168 fold. Further, in experiment [2] (setting [4]), the EC50 (as a rule, the concentration that produces a half-maximal response) came out at 484 nM.

For the molecule “5-Methylbenzo[c]phenanthridin-5-ium-2,3,8,9-tetrol; pyridine; chloride; hydrochloride [C-23]”, the “Fold Change (KLF15 reporter activity)” value in experiment [1] (setting [3]) is on record as 3.0541 fold. Moreover, the concentration for a half-maximal effect (EC50) in experiment [2] (setting [4]) worked out at 296 nM.

On to `Oc1ccc(-c2nc3ccccc3s2)cc1` [C-1, Phenol,4-(2-benzothiazolyl)], for which the “Fold Change (KLF15 reporter activity)” value in experiment [1] (setting [3]) was 3.0083 fold. Also, the EC50 in experiment [2] (setting [4]) is 99.6 nM.

Regarding `Nc1ccc2c(c1)CN1C(=O)c3ccccc3C1=N2` [C-2, Batracyclin], the fold induction at 1 µM in experiment [1] (setting [3]) worked out at 3.07. In addition, in experiment [2] (setting [5]), the half-maximal effective concentration (EC50) is 14.9 nM.

With `CN(C)c1ccc(/C=C2\C=Cc3ccccc32)cc1` [C-3, [(4-Dimethylamino)benzylidene]indene], the “Fold Change (KLF15 reporter activity)” value in experiment [1] (setting [3]) stood at 2.6455 fold. Also, the EC50 in experiment [2] (setting [4]) was determined as 17.7 nM.

With `CN(C)c1cccc(C=C(C#N)c2ccccc2)c1` [C-4, 2-Propenenitrile, 3-[3-(dimethylamino)phenyl]-2-phenyl-], the fold induction at 1 µM in experiment [1] (setting [3]) came to 2.57. Also, in experiment [2] (setting [5]), the EC50 came to 23.7 nM. On the same counts, the results for `COc1ccc2[nH]c(-c3ccccc3)cc2c1` [C-5, 5-methoxy-2-phenyl-1H-indole] are 3.14 and 55.9 nM.

Regarding `Cc1cccnc1NC(=S)Nc1ncccc1C` [C-6, 1,3-bis(3-methylpyridin-2-yl)thiourea], in experiment [1] (setting [3]), the fold induction at 1 µM came out at 2.71. For the same molecule, the EC50 in experiment [2] (setting [5]) is 770 nM.

Consider `O=C(Nc1ccc2ccccc2c1)c1cccc(F)c1` [C-8, 3-fluoro-N-(2-naphthyl)benzamide], for which, in experiment [1] (setting [3]), the fold induction at 1 µM came to 2.79. Moreover, the concentration for a half-maximal effect (EC50) in experiment [2] (setting [5]) came out at 70.5 nM. On the same counts, the results for `Clc1ccccc1-c1nc(-c2ccncc2)no1` [C-10, Pifexole] are 2.72 and 332 nM. The matching figures for `Nc1ccccc1C(=O)Nc1ccc(Cl)cc1Cl` [C-11, 2-amino-N-(2,4-dichlorophenyl)benzamide]: 2.64 and 706 nM.

For `NC(=O)c1ccccc1OCC(=O)Nc1ccc(Cl)c(Cl)c1` [C-12, 2-[2-(3,4-Dichloroanilino)-2-oxoethoxy]benzamide], the fold induction at 1 µM in experiment [1] (setting [3]) came out at 3.13. Also, the EC50 in experiment [2] (setting [5]) came to 37.3 nM. Regarding `O=C(Nc1ccc(Cl)c(Cl)c1)Nc1ccccc1O` [C-13, N-(3,4-dichlorophenyl)-N′-(2-hydroxyphenyl)urea], the fold induction at 1 µM in experiment [1] (setting [3]) turned out to be 2.64. Besides, the concentration for a half-maximal effect (EC50) in experiment [2] (setting [5]) stood at 86.1 nM. The matching figures for `O=C(Nc1ccc(Nc2ccccc2)cc1)Nc1ccccc1Cl` [C-14, 1-(4-Anilinophenyl)-3-(2-chlorophenyl)urea]: 3.03 and 42.1 nM. Consider `FC(F)(F)c1cccc(-c2nc3nc(Cl)c(Cl)nc3[nH]2)c1` [C-16, 5,6-dichloro-2-[3-(trifluoromethyl)phenyl]-1H-imidazo[4,5-b]pyrazine], for which the fold induction at 1 µM in experiment [1] (setting [3]) was 2.82. Besides, the EC50 in experiment [2] (setting [5]) came out at 52.1 nM. On the same counts, the results for `CC(=NNc1nc2ccccc2s1)c1ccncn1` [C-18, 2-(2-(1-(pyrimidin-4-yl)ethylidene)hydrazinyl)benzo[d]thiazole] are 3.29 and 156 nM. `CC1=C(O)C(=O)C=C2C1=CC=C1[C@@]2(C)CC[C@@]2(C)[C@@H]3C[C@](C)(C(=O)O)CC[C@]3(C)CC[C@]12C` [C-19, Celastrol]: in experiment [1] (24 h), the fold induction at 1 µM was determined as 3.28. Further, a half-maximal response in experiment [2] (Homo sapiens) (EC50) required 11.2 nM. `COc1ccc(N=Nc2ccc(N)nc2N)cc1` [C-20, 3-[(4-Methoxyphenyl)azo]-2,6-pyridinediamine]: in experiment [1] (setting [3]), the fold induction at 1 µM came to 3.14. In addition, the EC50 in experiment [2] (setting [5]) came to 84.4 nM. `Cc1ccc(NC(=O)c2cccc([N+](=O)[O-])c2O)c([N+](=O)[O-])c1` [C-21, 2-hydroxy-N-(4-methyl-2-nitrophenyl)-3-nitrobenzamide]: the fold induction at 1 µM in experiment [1] (24 h) worked out at 3.11. The same molecule showed a 50% effective concentration (EC50) in experiment [2] (Homo sapiens) of 61.4 nM. With `Cc1ccc(N/N=C2\C(=N)N(c3ccccc3)N=C2N)cc1` [C-24, (4Z)-5-imino-4-[(4-methylphenyl)hydrazinylidene]-1-phenylpyrazol-3-amine], the fold induction at 1 µM in experiment [1] (setting [3]) was 3.03. Also, the EC50 in experiment [2] (setting [5]) is 2670 nM. For `Cc1cc(N(C)C)ccc1/N=N/c1ccc2ncccc2c1` [C-25, N,N,3-trimethyl-4-[(E)-6-quinolylazo]aniline], the fold induction at 1 µM in experiment [1] (setting [3]) amounted to 3.02. The half-maximal effective concentration (EC50) in experiment [2] (setting [5]) was 15.8 nM.

Regarding `Cc1nc(-n2nc(-c3ccccc3)cc2-c2ccccc2)sc1C(=O)C=Cc1ccc(Cl)c(Cl)c1` [C-27, 3-(3,4-dichlorophenyl)-1-(2-(3,5-diphenyl-1H-pyrazol-1-yl)-4-methylthiazol-5-yl)prop-2-en-1-one], in experiment [1] (setting [3]), the fold induction at 1 µM was 2.89. As to `CN(C)c1ccc(N=Nc2cccc3ccoc23)cc1` [C-28, 7-(p-N,N-Dimethylaminophenylazo)benzofuran], the fold induction at 1 µM in experiment [1] (setting [3]) is 2.87. The concentration for a half-maximal effect (EC50) in experiment [2] (setting [5]) was ~6310 nM. For `Cc1cccn2c(=O)[nH]nc12` [C-29], in experiment [1] (setting [3]), the “Fold Change (KLF15 reporter activity)” value was 2.8700 fold. Moreover, in experiment [2] (setting [4]), the EC50 worked out at 550 nM. Turning to `c1ccc(-c2nnc(-c3ccccn3)s2)nc1` [C-30, 2,5-dipyridin-2-yl-1,3,4-thiadiazole], in experiment [1] (setting [3]), the fold induction at 1 µM came out at 2.86. The EC50 in experiment [2] (setting [5]) turned out to be 335 nM. With `O=C1C(c2cnc3ccccc3n2)=C(O)c2ccccc21` [C-31, 1-Indenone, 3-hydroxy-2-(2-quinoxalinyl)-], the fold induction at 1 µM in experiment [1] (setting [3]) worked out at 2.85. Further, in experiment [2] (setting [5]), the EC50 is 45.9 nM. In the case of `CCOC(=O)c1sc2[n+](c1C)C(=O)/C(=C/c1ccc([N+](=O)[O-])cc1)S2.[Cl-]` [C-32, ethyl (2Z)-5-methyl-2-[(4-nitrophenyl)methylidene]-3-oxo-[1,3]thiazolo[2,3-b][1,3]thiazol-4-ium-6-carboxylate;chloride], in experiment [1] (setting [3]), the “Fold Change (KLF15 reporter activity)” value was 2.8360 fold. With `O=C1C=C/C(=C2/Nc3ccccc3S2)C(O)=C1` [C-33, (4E)-4-(3H-1,3-benzothiazol-2-ylidene)-3-hydroxycyclohexa-2,5-dien-1-one], in experiment [1] (setting [3]), the fold induction at 1 µM was found to be 2.75. In addition, the concentration giving a half-maximal response (EC50) in experiment [2] (setting [5]) amounted to 490 nM. On the same counts, the results for `O=C1Nc2ccccc2C1=NNC(=O)c1ccccc1O` [C-34, 2-hydroxy-N′-(2-oxo-1,2-dihydro-3H-indol-3-ylidene)benzohydrazide] are 2.69 and 122 nM. With `COc1ccc2c(n1)Sc1nc3ccccc3nc1N2` [C-35, 7-Methoxy-1,4,6-benzotriazaphenothiazine], the “Fold Change (KLF15 reporter activity)” value in experiment [1] (setting [3]) is on record as 2.6597 fold. Further, the EC50 in experiment [2] (setting [4]) is 319 nM. On to `O=C(NC(=S)Nc1ccccn1)c1ccccc1` [C-36, N-(pyridin-2-ylcarbamothioyl)benzamide], for which the fold induction at 1 µM in experiment [1] (setting [3]) stood at 2.64. Besides, in experiment [2] (setting [5]), the EC50 is 292 nM. On to `CN(C)c1ccc(N=Nc2ccccn2)cc1` [C-37, 4-(2-pyridylazo)-n,n-dimethylaniline], for which the “Fold Change (KLF15 reporter activity)” value in experiment [1] (setting [3]) came out at 2.6148 fold. Moreover, the concentration giving a half-maximal response (EC50) in experiment [2] (setting [4]) was 27 nM. On the same counts, the results for `O=C(Nc1cccc([N+](=O)[O-])c1)c1ccc2ccccc2c1O` [C-38, 2-<3-Nitro-phenylcarbamoyl>-naphth-1-ol] are 2.6069 fold and 145 nM.

For `Cc1csc(N=Nc2ccc(N(C)C)cc2)[n+]1[O-]` [C-39, N,N-dimethyl-4-[(4-methyl-3-oxido-1,3-thiazol-3-ium-2-yl)diazenyl]aniline], the fold induction at 1 µM in experiment [1] (setting [3]) worked out at 2.6. Further, in experiment [2] (setting [5]), the concentration for a half-maximal effect (EC50) was ~6890 nM. The matching figures for `COc1ccc(C(C#N)=Cc2ccccn2)cc1` [C-40, 2-(4-methoxyphenyl)-3-pyridin-2-ylprop-2-enenitrile]: 2.6 and 546 nM. The matching figures for `COc1cccc2nc3cc(C)c(C)cc3nc12` [C-41, 1-Methoxy-7,8-dimethylphenazine]: 2.59 and 215 nM.

For `O=C1C(=Cc2ccc([N+](=O)[O-])cc2)Sc2scc(-c3cccc([N+](=O)[O-])c3)[n+]21` [C-42, Thiazolo[2,3-b]thiazolium, 2,3-dihydro-2-[(4-nitrophenyl)methylene]-5-(3-nitrophenyl)-3-oxo-, chloride], in experiment [1] (24 h), the fold induction at 1 µM is 2.58. Take “Tin(IV), chlorotriphenyl[1-(4-ethoxyphenyl)-3-cyanoureato]-, hydrogen, trimethylamine [C-17]”: the “Fold Change (KLF15 reporter activity)” value in experiment [1] (setting [3]) amounted to 4.6159 fold.
